# Entries after “also recorded” stand apart in the source; their conditions may differ.
# Tests used:
# [1] = biological target: T1, mouse odorant receptor OREG (Mus musculus, UniProt Q920P2); assay: CRE-luciferase reporter gene assay, OREG; format: cell-based
# T1 construct: expressed in transfected cells; host or cells: 293T cells (with or without co-transfected REEP1/RTP1/RTP2) and Hana3A cells (293T stably expressing mouse REEP1, RTP1, RTP2, Galpha-olf)
# T1 sequence (Q920P2 1-313): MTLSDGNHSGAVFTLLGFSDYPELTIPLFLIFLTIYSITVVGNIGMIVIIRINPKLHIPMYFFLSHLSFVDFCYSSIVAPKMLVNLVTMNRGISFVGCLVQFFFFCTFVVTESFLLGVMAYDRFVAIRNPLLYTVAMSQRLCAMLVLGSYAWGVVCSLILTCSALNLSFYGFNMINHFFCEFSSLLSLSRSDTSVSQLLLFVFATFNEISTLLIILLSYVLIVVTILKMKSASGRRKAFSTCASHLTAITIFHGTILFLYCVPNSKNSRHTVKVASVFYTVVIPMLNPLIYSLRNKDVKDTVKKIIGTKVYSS
# Source text: Poor odorant evoked signaling activity in heterologous cell culture systems expressing ORs has been attributed to the poor cell surface expression of ORs. The identification of REEP and/or RTP allowed a direct assessment of this issue. A luciferase reporter gene assay was employed in which a cAMP responsive element (CRE) mediated luciferase gene expression (see FIG. 8A). Because OR activation leads to an increase in cAMP, activation of the mouse odorant receptor OREG by its ligand eugenol was measured in the presence and absence of REEP and/or RTP (see, e.g., Kajiya, K., et al. (2001) J Neurosci 21, 6018-6025; Touhara, K., et al., (1999) Proc Natl Acad Sci USA 96, 4040-4045; each herein incorporated by reference in their entireties). As reported previously, eugenol increased levels of OREG dependent luciferase activity (see, e.g., Katada, S., et al. (2003) Biochem Biophys Res Commun 305, 964-969; herein incorporated by reference in its entirety).
# (§1) To facilitate analysis of odorant-OR interactions, 293T cell lines were established which stably express REEP1, RTP1, RTP2 and Gαolf, the G protein alpha subunit that couples to OR (see, e.g., Belluscio, L., et al. (1998) Neuron 20, 69-81; Jones, D. T., and Reed, R. R. (1989). Science 244, 790-795; each herein incorporated by reference in their entireties). To establish such cells, linearized expression vectors containing mouse REEP1, RTP1, RTP2 and Gαolf ORFs were transfected into 293T cells with PGK-Pac (puromycin resistant gene) (see, e.g., Watanabe, S., et al. (1995) Biochem Biophys Res Commun 213, 130-137; herein incorporated by reference in its entirety). […] Enhanced cell-surface expression was observed when OREG or other ORs were transfected in Hana3A cells and immunostained (see FIG. 10). […] Expression of Gαolf alone in 293T cells had little or no effect on OR activation using this assay.
# Dual-Glo system (Promega) for luciferase assay was used. CRE-Luciferase (Stratagene) was used to measure the receptor activities. Renilla luciferase driven by constitutively active SV40 promoter (pRL-SV40: Promega) was used as an internal control. Cells were plated on poly-D-lysine coated 96 well plates (BIOCOAT, Beckton Dickinson). After 8 hours (for experiments shown in FIGS. 8B and 8C) or 12 hours (for experiments shown in FIG. 8D and FIG. 11) after transfection, the medium was replaced with CD293 chemically defined medium (Invitrogen) and the plates were incubated for one hour at 37 degrees C. The medium was replaced with 50 ul of odorant solutions dissolved in CD293 and incubated for 10 hours (for experiments shown in FIGS. 8B and 8C) or 4 hours (for experiments shown in FIG. 8D and FIG. 11) at 37 degrees C. The manufacture's protocol for measuring luciferase and Renilla luciferase activities was followed. Luminescence was measured using Wallac Victor 1420 (Perkin-Elmer). Normalized luciferase activity was calculated as [Luc (N)-Luc (0)]/RL (N), where Luc (N)=Luminescent count of a certain well, Luc (0)=Luminescent count without odorant for each OR, and RL (N)=Luminescent count of Renilla Luciferase of each well. For cAMP assays, cells were plated onto 24-well plate. […]. Prism software (Graphpad) was used for data analysis.
# OREG = biological target: T2, OREG (Mus musculus, UniProt Q920P2); assay: cAMP assay, OREG; format: cell-based; details: OREG transfected; Hana3A cells vs 293T cells expressing Gαolf
# T2 construct: expressed in transfected cells; host or cells: Hana3A cells, or HEK293T cells co-transfected with Golf
# T2 sequence (Q920P2 1-313): T1 sequence (Q920P2 1-313)
# Description: In order to confirm the increased OR function in the presence of REEP1, RTP1 and RTP2, the amount of cAMP upon ligand stimulation was measured using 293T cells expressing Gαolf and Hana3A cells. […] In contrast, when the β2 adrenergic receptor was expressed and isoproterenol was used, no significant differences in cAMP production were observed (see FIG. 8E). The present invention is not limited to a particular mechanism. Indeed, an understanding of the mechanism is not necessary to practice the present invention. Nonetheless, this further supports a specific role of the accessory proteins in functional OR expression.
# Dual-Glo system (Promega) for luciferase assay was used. CRE-Luciferase (Stratagene) was used to measure the receptor activities. Renilla luciferase driven by constitutively active SV40 promoter (pRL-SV40: Promega) was used as an internal control. Cells were plated on poly-D-lysine coated 96 well plates (BIOCOAT, Beckton Dickinson). […] Luminescence was measured using Wallac Victor 1420 (Perkin-Elmer). Normalized luciferase activity was calculated as [Luc (N)-Luc (0)]/RL (N), where Luc (N)=Luminescent count of a certain well, Luc (0)=Luminescent count without odorant for each OR, and RL (N)=Luminescent count of Renilla Luciferase of each well. […]
# OR-S6/S79 = assay: CRE-luciferase reporter gene assay, OR-S6/S79; format: cell-based, mouse; details: Hana3A cells
# Description: Four ORs (S6/79, S18, S46 and S50) previously assayed using other techniques (see, e.g., Malnic, B., et al. (1999) Cell 96, 713-723; herein incorporated by reference in its entirety) were tested against an assay panel of aliphatic alcohols, aldehydes and acids and some other odorants. Additionally, five “orphan” class I ORs (MOR23-1, MOR31-4, MOR31-6, MOR32-5 and MOR32-11) whose cognate ligands were unknown were tested. At a suprathreshold concentration of 100 uM, all these ORs were odorant selective, responding to only a small subset of the odorants tested (see FIG. 11A). This specificity was retained at lower, more physiologically relevant concentrations. Many of these ORs responded to odorants present in micromolar concentrations. The cell-surface expression of these ORs by living-cell immunofluorescence were evaluated. Some ORs (S18, MOR31-4, MOR31-6 and MOR32-5) were strongly expressed while other ORs (S6, S50, MOR23-1, MOR32-11) were weakly expressed (see FIG. 12). The present invention is not limited to a particular mechanism. Indeed, an understanding of the mechanism is not necessary to practice the present invention. […] Finally, two additional orphan class II ORs, MOR203-1 and olfr62, were tested against a panel of 139 odorants. […] Olfr62 responded to coumarine and piperonal (see FIG. 11C). […] When parental 293T cells for these ORs were used in this luciferase assay, little or no response to the odorants was observed. The present invention is not limited to a particular mechanism. Indeed, an understanding of the mechanism is not necessary to practice the present invention.
# An expression system has been established that permits rapid identification of ligands for ORs. This system was tested with twelve ORs. Four of the tested ORs (S6/S79, S18, S46, and S50) were expressed in single olfactory neurons responding to aliphatic odorants (see, e.g., Malnic, B., et al. (1999) Cell 96, 713-723; herein incorporated by reference in its entirety). The response profiles of OR-S50, but not that of OR-S18 agreed with the previous report (see, e.g., Malnic, B., et al. (1999) Cell 96, 713-723; herein incorporated by reference in its entirety). […] In experiments conducted during the course of the present invention, OR-S6/S79 responded to nonanedioic acid but not to heptanoic acid or octanoic acid. The present invention is not limited to a particular mechanism. […] When multiple single olfactory neurons that expressed the same OR were recorded against the same set of odorants using calcium imaging, their response profiles were similar but different (see, e.g., Bozza, T., et al. (2002) J Neurosci 22, 3033-3043; herein incorporated by reference in its entirety).
# (§2) Dual-Glo system (Promega) for luciferase assay was used. […] Luminescence was measured using Wallac Victor 1420 (Perkin-Elmer). […]
# [2] = test system: olfactory neurons S6 and S79; details: previous studies (Malnic 1999); cited from earlier work
# OR-S46 = assay: CRE-luciferase reporter gene assay, OR-S46; format: cell-based, mouse; details: Hana3A cells
# Source text: To facilitate analysis of odorant-OR interactions, 293T cell lines were established which stably express REEP1, RTP1, RTP2 and Gαolf, the G protein alpha subunit that couples to OR (see, e.g., Belluscio, L., et al. (1998) Neuron 20, 69-81; Jones, D. T., and Reed, R. R. (1989). Science 244, 790-795; each herein incorporated by reference in their entireties). To establish such cells, linearized expression vectors containing mouse REEP1, RTP1, RTP2 and Gαolf ORFs were transfected into 293T cells with PGK-Pac (puromycin resistant gene) (see, e.g., Watanabe, S., et al. (1995) Biochem Biophys Res Commun 213, 130-137; herein incorporated by reference in its entirety). […] Enhanced cell-surface expression was observed when OREG or other ORs were transfected in Hana3A cells and immunostained (see FIG. 10). […]
# Four ORs (S6/79, S18, S46 and S50) previously assayed using other techniques (see, e.g., Malnic, B., et al. (1999) Cell 96, 713-723; herein incorporated by reference in its entirety) were tested against an assay panel of aliphatic alcohols, aldehydes and acids and some other odorants. […] The cell-surface expression of these ORs by living-cell immunofluorescence were evaluated. […]
# as §2
# MOR203-1 = assay: CRE-luciferase reporter gene assay, MOR203-1; format: cell-based, mouse; details: Hana3A cells
# Description: (§3) Four ORs (S6/79, S18, S46 and S50) previously assayed using other techniques (see, e.g., Malnic, B., et al. (1999) Cell 96, 713-723; herein incorporated by reference in its entirety) were tested against an assay panel of aliphatic alcohols, aldehydes and acids and some other odorants. Additionally, five “orphan” class I ORs (MOR23-1, MOR31-4, MOR31-6, MOR32-5 and MOR32-11) whose cognate ligands were unknown were tested. At a suprathreshold concentration of 100 uM, all these ORs were odorant selective, responding to only a small subset of the odorants tested (see FIG. 11A). This specificity was retained at lower, more physiologically relevant concentrations. Many of these ORs responded to odorants present in micromolar concentrations. The cell-surface expression of these ORs by living-cell immunofluorescence were evaluated. Some ORs (S18, MOR31-4, MOR31-6 and MOR32-5) were strongly expressed while other ORs (S6, S50, MOR23-1, MOR32-11) were weakly expressed (see FIG. 12). […]
# (§4) Dual-Glo system (Promega) for luciferase assay was used. […] Luminescence was measured using Wallac Victor 1420 (Perkin-Elmer). Normalized luciferase activity was calculated as [Luc (N)-Luc (0)]/RL (N), where Luc (N)=Luminescent count of a certain well, Luc (0)=Luminescent count without odorant for each OR, and RL (N)=Luminescent count of Renilla Luciferase of each well. […]
# MOR23-1 = assay: CRE-luciferase reporter gene assay, MOR23-1; format: cell-based, mouse; details: Hana3A cells
# Description: as §3, §4
# MOR31-4 = assay: CRE-luciferase reporter gene assay, MOR31-4; format: cell-based, mouse; details: Hana3A cells
# Description: as §3, §4
# OR-S50 = assay: CRE-luciferase reporter gene assay, OR-S50; format: cell-based, mouse
# Source text: as §1
# Dual-Glo system (Promega) for luciferase assay was used. CRE-Luciferase (Stratagene) was used to measure the receptor activities. […] Luminescence was measured using Wallac Victor 1420 (Perkin-Elmer). Normalized luciferase activity was calculated as [Luc (N)-Luc (0)]/RL (N), where Luc (N)=Luminescent count of a certain well, Luc (0)=Luminescent count without odorant for each OR, and RL (N)=Luminescent count of Renilla Luciferase of each well. […]
smiles,measurement,setting,value
"C=CCc1ccc(O)c(OC)c1 [eugenol, reference compound]",luciferase induction,[1]; HA-OREG in 293T cells,Little luciferase induction was observed
same,luciferase activity,[1]; HA-OREG in Hana3A cells,an enhancement in luciferase activity was observed
same,OREG dependent luciferase activity,"[1]; odorant applied, OREG in 293T cells with or without REEP and/or RTP",increased
same,cAMP production,OREG,Enhanced cAMP production; also recorded: more cAMP was produced
CCCCCCCC(=O)O [octanoic acid],response of OR-S6/S79 to odorant (luciferase),OR-S6/S79,not
same,response of single olfactory neurons S6 and S79 to odorant,[2],only the olfactory neuron S79 responded
"CCCCCCC(=O)O [heptanoic acid, Heptanoic acid]",response of OR-S6/S79 to odorant (luciferase),OR-S6/S79,not
same,response of single olfactory neurons S6 and S79 to odorant,[2],only the olfactory neuron S79 responded
"CCCCCCCCC(=O)O [nonanoic acid, Nonanoic acid]",response of S46 to odorant (luciferase),OR-S46,responded
same,response of MOR203-1 to odorant (luciferase),MOR203-1,responded to high concentrations
same,response of MOR23-1 to odorant (luciferase),MOR23-1,responded
same,response of MOR31-4 to odorant (luciferase),MOR31-4,responded
O=C(O)CCCCCCCC(=O)O [nonanedioic acid],luciferase response,OR-S50; OR-S50 in 293T cells,did not produce a luciferase response
same,luciferase activity,OR-S50; OR-S50 in Hana3A cells,robust luciferase activity
same,response of OR-S6/S79 to odorant (luciferase),OR-S6/S79,responded
same,response of single olfactory neurons S6 and S79 to odorant,[2],both responded

# From US7838288B2, “Modulators of odorant receptors” (Duke University, priority 2004, dated 2010)
